Assay results reported in the kinase profiling compilation of Christmann-Franck et al. (2016).

Key:
Assay in all cases: radiometric filter-binding kinase assay, Kinase HotSpot
Settings in all cases: compound 0.5 µM; ATP 10 µM
[1] = target: AURKA (human) (UniProt O14965)
[2] = target: AURKC (human) (UniProt Q9UQB9)
[3] = target: BRAF (human) (UniProt P15056)
[4] = target: CAMK2A (human) (UniProt Q9UQM7)
[5] = target: CDC42BPA (human) (UniProt Q5VT25)
[6] = target: CDK2 CCNE1 (human) (UniProt P24941+P24864)
Chain of CDK2 CCNE1 (human) (P24864 whole entry, looked up, other chains not shown): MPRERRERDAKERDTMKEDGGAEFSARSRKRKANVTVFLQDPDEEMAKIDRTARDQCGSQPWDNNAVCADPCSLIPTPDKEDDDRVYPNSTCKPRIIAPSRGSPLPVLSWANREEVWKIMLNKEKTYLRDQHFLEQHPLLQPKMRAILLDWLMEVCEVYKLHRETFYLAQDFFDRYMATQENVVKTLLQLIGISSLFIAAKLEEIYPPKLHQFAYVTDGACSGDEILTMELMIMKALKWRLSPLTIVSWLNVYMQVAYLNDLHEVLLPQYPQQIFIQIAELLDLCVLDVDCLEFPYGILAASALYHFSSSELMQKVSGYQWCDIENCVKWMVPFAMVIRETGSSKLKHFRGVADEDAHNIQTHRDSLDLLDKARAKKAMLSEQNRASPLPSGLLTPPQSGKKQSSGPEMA

[7] = target: CDK4 CCND3 (human) (UniProt P30281+P11802)
Chain of CDK4 CCND3 (human) (P11802 whole entry, looked up): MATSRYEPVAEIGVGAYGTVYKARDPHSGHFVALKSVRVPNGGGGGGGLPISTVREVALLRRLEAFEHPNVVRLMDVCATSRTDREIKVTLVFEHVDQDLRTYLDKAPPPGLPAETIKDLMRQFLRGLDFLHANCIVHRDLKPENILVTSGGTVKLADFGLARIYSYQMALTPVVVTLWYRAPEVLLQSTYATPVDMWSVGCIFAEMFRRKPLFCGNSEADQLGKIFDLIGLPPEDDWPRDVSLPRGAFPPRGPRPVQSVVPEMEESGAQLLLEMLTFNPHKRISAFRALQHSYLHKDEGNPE
Chain of CDK4 CCND3 (human) (P30281 whole entry, looked up): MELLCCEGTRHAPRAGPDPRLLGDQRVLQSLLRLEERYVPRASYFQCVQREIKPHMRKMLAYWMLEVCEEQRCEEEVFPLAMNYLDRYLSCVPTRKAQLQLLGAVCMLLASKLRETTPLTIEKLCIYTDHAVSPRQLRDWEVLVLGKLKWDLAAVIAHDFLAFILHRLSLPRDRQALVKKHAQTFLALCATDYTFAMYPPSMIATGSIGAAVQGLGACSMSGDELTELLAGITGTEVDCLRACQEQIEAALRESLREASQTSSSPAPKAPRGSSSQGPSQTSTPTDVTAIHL

[8] = target: CDK5 CDK5R1 p25 (human) (UniProt Q00535+Q15078)
[9] = target: CSK (human) (UniProt P41240)
[10] = target: CSNK1D (human) (UniProt P48730)
[11] = target: CSNK1G3 (human) (UniProt Q9Y6M4)
[12] = target: DSTYK (human) (UniProt Q6XUX3)
[13] = target: EPHB1 (human) (UniProt P54762)
[14] = target: EPHB2 (human) (UniProt P29323)
[15] = target: FLT3 (human) (UniProt P36888)
[16] = target: GSG2 (human) (UniProt Q8TF76)
[17] = target: HIPK4 (human) (UniProt Q8NE63)
[18] = target: INSR (human) (UniProt P06213)
Chain of INSR (human) (P06213 whole entry, looked up): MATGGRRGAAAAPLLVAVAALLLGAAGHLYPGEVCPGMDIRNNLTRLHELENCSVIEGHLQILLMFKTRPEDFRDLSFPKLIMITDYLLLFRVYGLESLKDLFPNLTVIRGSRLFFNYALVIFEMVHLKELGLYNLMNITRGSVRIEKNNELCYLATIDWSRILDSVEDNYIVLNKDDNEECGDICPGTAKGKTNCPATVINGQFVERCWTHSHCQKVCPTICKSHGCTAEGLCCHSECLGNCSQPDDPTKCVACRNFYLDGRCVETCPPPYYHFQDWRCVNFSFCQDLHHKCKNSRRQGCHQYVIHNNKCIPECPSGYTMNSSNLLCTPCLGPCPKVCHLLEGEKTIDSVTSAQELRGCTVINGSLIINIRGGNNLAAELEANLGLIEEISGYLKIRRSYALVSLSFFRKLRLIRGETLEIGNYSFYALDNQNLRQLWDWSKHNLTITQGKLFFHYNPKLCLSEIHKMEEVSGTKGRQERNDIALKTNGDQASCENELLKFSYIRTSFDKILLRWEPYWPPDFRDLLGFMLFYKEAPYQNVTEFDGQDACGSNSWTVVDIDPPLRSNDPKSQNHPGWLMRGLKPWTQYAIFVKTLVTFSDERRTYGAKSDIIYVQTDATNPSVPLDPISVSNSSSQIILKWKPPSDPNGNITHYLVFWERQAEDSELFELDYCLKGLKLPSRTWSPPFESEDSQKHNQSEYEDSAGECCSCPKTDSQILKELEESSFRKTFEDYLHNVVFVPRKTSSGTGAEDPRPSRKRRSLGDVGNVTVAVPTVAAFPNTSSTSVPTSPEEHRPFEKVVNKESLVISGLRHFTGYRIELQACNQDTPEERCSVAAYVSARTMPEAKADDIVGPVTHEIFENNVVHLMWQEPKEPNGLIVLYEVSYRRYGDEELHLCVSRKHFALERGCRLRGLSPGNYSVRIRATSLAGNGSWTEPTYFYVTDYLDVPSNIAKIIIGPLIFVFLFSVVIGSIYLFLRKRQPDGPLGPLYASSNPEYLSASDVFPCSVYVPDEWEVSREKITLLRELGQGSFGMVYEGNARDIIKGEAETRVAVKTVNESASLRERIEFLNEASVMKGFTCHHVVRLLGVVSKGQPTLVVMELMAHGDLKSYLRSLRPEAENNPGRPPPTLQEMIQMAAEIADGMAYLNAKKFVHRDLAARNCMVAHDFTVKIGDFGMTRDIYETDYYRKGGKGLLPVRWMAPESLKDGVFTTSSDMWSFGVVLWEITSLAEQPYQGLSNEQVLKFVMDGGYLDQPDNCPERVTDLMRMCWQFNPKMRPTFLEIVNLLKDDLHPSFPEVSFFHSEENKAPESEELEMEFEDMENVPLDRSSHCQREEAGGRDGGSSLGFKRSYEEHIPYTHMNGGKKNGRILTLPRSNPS

[19] = target: ITK (human) (UniProt Q08881)
[20] = target: JAK3 JH1 JH2 (human) (UniProt P52333)
[21] = target: LIMK1 (human) (UniProt P53667)
[22] = target: LRRK2 (human) (UniProt Q5S007)
[23] = target: MAP3K3 (human) (UniProt Q99759)
[24] = target: MAP3K8 (human) (UniProt P41279)
[25] = target: MAP3K9 (human) (UniProt P80192)
[26] = target: MAPK8 (human) (UniProt P45983)
[27] = target: MARK1 (human) (UniProt Q9P0L2)
[28] = target: MARK3 (human) (UniProt P27448)
[29] = target: MATK (human) (UniProt P42679)
[30] = target: MELK (human) (UniProt Q14680)
[31] = target: MUSK (human) (UniProt O15146)
Chain of MUSK (human) (O15146 whole entry, looked up): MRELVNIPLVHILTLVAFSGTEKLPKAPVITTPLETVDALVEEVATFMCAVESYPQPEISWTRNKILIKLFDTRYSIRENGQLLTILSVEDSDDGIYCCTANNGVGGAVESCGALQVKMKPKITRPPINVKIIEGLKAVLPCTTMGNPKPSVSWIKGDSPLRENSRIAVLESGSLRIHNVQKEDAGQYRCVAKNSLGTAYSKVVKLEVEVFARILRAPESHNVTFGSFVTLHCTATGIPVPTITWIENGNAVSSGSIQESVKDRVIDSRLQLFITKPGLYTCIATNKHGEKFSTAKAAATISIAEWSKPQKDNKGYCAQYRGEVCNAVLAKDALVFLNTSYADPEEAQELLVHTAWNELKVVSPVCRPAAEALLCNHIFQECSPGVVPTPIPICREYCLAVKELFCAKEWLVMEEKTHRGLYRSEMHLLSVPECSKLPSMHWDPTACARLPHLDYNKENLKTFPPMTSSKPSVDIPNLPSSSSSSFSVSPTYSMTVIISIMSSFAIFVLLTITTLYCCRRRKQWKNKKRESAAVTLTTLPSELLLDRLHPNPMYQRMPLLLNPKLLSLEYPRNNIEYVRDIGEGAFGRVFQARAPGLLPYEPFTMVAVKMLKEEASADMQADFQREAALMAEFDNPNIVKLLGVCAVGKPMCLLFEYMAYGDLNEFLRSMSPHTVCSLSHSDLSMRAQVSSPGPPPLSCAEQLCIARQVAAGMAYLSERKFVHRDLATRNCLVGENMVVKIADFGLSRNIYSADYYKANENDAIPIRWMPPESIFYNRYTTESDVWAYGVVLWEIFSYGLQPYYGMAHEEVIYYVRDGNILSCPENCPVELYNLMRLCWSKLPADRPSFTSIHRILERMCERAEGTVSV

[32] = target: NUAK1 (human) (UniProt O60285)
[33] = target: PAK6 (human) (UniProt Q9NQU5)
[34] = target: PAK7 (human) (UniProt Q9P286)
[35] = target: PIM3 (human) (UniProt Q86V86)
[36] = target: PKN1 (human) (UniProt Q16512)
Chain of PKN1 (human) (Q16512 whole entry, looked up): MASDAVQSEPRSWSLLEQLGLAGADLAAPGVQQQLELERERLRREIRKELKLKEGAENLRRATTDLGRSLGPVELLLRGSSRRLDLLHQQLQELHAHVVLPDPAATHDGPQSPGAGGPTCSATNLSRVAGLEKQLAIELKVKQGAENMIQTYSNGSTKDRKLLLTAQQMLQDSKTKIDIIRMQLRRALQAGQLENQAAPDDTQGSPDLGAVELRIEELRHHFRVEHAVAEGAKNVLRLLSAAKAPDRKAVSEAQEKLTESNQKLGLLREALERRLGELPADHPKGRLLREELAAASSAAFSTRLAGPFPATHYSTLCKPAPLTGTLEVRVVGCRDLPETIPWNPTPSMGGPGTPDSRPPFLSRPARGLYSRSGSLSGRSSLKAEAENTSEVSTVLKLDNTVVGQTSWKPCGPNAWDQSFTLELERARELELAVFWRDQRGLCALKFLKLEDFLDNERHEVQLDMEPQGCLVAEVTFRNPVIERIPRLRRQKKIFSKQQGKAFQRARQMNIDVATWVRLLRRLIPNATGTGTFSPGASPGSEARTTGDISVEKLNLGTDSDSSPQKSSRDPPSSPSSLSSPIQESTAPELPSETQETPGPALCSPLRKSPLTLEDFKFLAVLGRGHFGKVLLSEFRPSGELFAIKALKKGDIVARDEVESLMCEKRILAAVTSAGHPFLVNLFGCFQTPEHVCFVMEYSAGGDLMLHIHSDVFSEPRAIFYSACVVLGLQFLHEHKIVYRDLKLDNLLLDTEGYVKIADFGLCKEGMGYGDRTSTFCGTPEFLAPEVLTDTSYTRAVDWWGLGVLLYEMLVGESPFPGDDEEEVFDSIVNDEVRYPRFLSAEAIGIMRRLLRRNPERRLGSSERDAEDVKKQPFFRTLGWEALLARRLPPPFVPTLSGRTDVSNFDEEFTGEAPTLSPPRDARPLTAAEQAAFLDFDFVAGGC

[37] = target: SGK3 (human) (UniProt Q96BR1)
Chain of SGK3 (human) (Q96BR1 whole entry, looked up): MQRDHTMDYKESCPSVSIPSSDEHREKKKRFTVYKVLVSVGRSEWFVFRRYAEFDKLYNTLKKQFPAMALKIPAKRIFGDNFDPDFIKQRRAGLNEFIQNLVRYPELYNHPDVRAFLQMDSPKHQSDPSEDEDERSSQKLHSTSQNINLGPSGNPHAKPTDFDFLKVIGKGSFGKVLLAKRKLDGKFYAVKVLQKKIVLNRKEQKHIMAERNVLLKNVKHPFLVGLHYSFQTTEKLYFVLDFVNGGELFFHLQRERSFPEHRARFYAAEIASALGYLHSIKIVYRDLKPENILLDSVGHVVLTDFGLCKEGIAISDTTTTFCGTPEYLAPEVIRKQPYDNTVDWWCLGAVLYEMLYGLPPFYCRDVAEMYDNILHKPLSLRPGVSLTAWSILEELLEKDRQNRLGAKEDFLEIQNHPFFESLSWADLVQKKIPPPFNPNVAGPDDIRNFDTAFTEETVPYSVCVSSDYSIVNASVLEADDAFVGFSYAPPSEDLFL

[38] = target: STK10 (human) (UniProt O94804)
[39] = target: STK17A (human) (UniProt Q9UEE5)
[40] = target: TGFBR1 (human) (UniProt P36897)
[41] = target: ULK2 (human) (UniProt Q8IYT8)

## CCN(CC)CCNC(=O)c1c(C)[nH]c(/C=C2\C(=O)Nc3ccc(Cl)cc32)c1C
[1]
  residual activity: 80.3%
[2]
  residual activity: 74.7%
[3]
  residual activity: 109%
[4]
  residual activity: 3.6%
[5]
  residual activity: 60%
[6]
  residual activity: 90%
[7]
  residual activity: 86.3%
[8]
  residual activity: 95.1%
[9]
  residual activity: 86.3%
[10]
  residual activity: 49.7%
[11]
  residual activity: 47.7%
[12]
  residual activity: 105%
[13]
  residual activity: 60.8%
[14]
  residual activity: 87.5%
[15]
  residual activity: 0.782%
[16]
  residual activity: 82.9%
[17]
  residual activity: 61.7%
[18]
  residual activity: 30.1%
[19]
  residual activity: 30%
[20]
  residual activity: 39.3%
[21]
  residual activity: 98.4%
[22]
  residual activity: 1.44%
[23]
  residual activity: 30.6%
[24]
  residual activity: 113%
[25]
  residual activity: 49.6%
[26]
  residual activity: 97.2%
[27]
  residual activity: 18.1%
[28]
  residual activity: 7.86%
[29]
  residual activity: 96.8%
[30]
  residual activity: 16.7%
[31]
  residual activity: 63.5%
[32]
  residual activity: 2.06%
[33]
  residual activity: 101%
[34]
  residual activity: 58.9%
[35]
  residual activity: 74%
[36]
  residual activity: 36.5%
[37]
  residual activity: 103%
[38]
  residual activity: 7.11%
[39]
  residual activity: 16.1%
[40]
  residual activity: 95.5%
[41]
  residual activity: 43%

## CC[n+]1c(/C=C/N(C)c2ccccc2)n(-c2ccccc2)c2ccc(-c3nc4ccccc4s3)cc21
[1]
  residual activity: 88.1%
[2]
  residual activity: 91.3%
[3]
  residual activity: 100%
[4]
  residual activity: 103%
[5]
  residual activity: 102%
[6]
  residual activity: 92.9%
[7]
  residual activity: 102%
[8]
  residual activity: 103%
[9]
  residual activity: 100%
[10]
  residual activity: 104%
[11]
  residual activity: 92.4%
[12]
  residual activity: 103%
[13]
  residual activity: 104%
[14]
  residual activity: 99.1%
[15]
  residual activity: 98.6%
[16]
  residual activity: 110%
[17]
  residual activity: 102%
[18]
  residual activity: 94%
[19]
  residual activity: 92.7%
[20]
  residual activity: 106%
[21]
  residual activity: 98.3%
[22]
  residual activity: 95.5%
[23]
  residual activity: 109%
[24]
  residual activity: 92%
[25]
  residual activity: 98.3%
[26]
  residual activity: 96.3%
[27]
  residual activity: 104%
[28]
  residual activity: 98.8%
[29]
  residual activity: 96.4%
[30]
  residual activity: 93.4%
[31]
  residual activity: 94.7%
[32]
  residual activity: 96.1%
[33]
  residual activity: 95.5%
[34]
  residual activity: 98.6%
[35]
  residual activity: 98.8%
[36]
  residual activity: 85.7%
[37]
  residual activity: 102%
[38]
  residual activity: 101%
[39]
  residual activity: 96.9%
[40]
  residual activity: 102%
[41]
  residual activity: 109%

## CC(C)N(CCC(=O)c1ccc2ccccc2c1)Cc1ccccc1
[1]
  residual activity: 104%
[2]
  residual activity: 97.5%
[3]
  residual activity: 95.6%
[4]
  residual activity: 106%
[5]
  residual activity: 99.4%
[6]
  residual activity: 89.2%
[7]
  residual activity: 92.4%
[8]
  residual activity: 96.5%
[9]
  residual activity: 88.5%
[10]
  residual activity: 97.6%
[11]
  residual activity: 99%
[12]
  residual activity: 84.9%
[13]
  residual activity: 96.8%
[14]
  residual activity: 102%
[15]
  residual activity: 97.5%
[16]
  residual activity: 95.6%
[17]
  residual activity: 107%
[18]
  residual activity: 107%
[19]
  residual activity: 89.9%
[20]
  residual activity: 80.9%
[21]
  residual activity: 103%
[22]
  residual activity: 98.2%
[23]
  residual activity: 102%
[24]
  residual activity: 94.6%
[25]
  residual activity: 104%
[26]
  residual activity: 88%
[27]
  residual activity: 97.7%
[28]
  residual activity: 101%
[29]
  residual activity: 80.7%
[30]
  residual activity: 99.4%
[31]
  residual activity: 112%
[32]
  residual activity: 97.1%
[33]
  residual activity: 116%
[34]
  residual activity: 98.5%
[35]
  residual activity: 105%
[36]
  residual activity: 107%
[37]
  residual activity: 106%
[38]
  residual activity: 93.6%
[39]
  residual activity: 104%
[40]
  residual activity: 92.5%
[41]
  residual activity: 113%

## Nc1cccc(-c2cc3c(Oc4cccc(O)c4)ncnc3[nH]2)c1
[1]
  residual activity: 78.2%
[2]
  residual activity: 77.7%
[3]
  residual activity: 53.2%
[4]
  residual activity: 115%
[5]
  residual activity: 87.7%
[6]
  residual activity: 90%
[7]
  residual activity: 92.8%
[8]
  residual activity: 114%
[9]
  residual activity: 43.6%
[10]
  residual activity: 96.8%
[11]
  residual activity: 92.6%
[12]
  residual activity: 83.4%
[13]
  residual activity: 40%
[14]
  residual activity: 40.7%
[15]
  residual activity: 30.7%
[16]
  residual activity: 93.3%
[17]
  residual activity: 103%
[18]
  residual activity: 93.7%
[19]
  residual activity: 102%
[20]
  residual activity: 123%
[21]
  residual activity: 22.1%
[22]
  residual activity: 93.4%
[23]
  residual activity: 96.4%
[24]
  residual activity: 99.6%
[25]
  residual activity: 16.2%
[26]
  residual activity: 94.4%
[27]
  residual activity: 83%
[28]
  residual activity: 77.5%
[29]
  residual activity: 97.8%
[30]
  residual activity: 93.4%
[31]
  residual activity: 62.8%
[32]
  residual activity: 37%
[33]
  residual activity: 109%
[34]
  residual activity: 86.9%
[35]
  residual activity: 129%
[36]
  residual activity: 105%
[37]
  residual activity: 117%
[38]
  residual activity: 45.8%
[39]
  residual activity: 93.7%
[40]
  residual activity: 101%
[41]
  residual activity: 97.5%

## CCOC(=O)c1c(C)[nH]c(/C=C2\C(=O)Nc3ccccc32)c1C
[1]
  residual activity: 90.4%
[2]
  residual activity: 89.1%
[3]
  residual activity: 96.7%
[4]
  residual activity: 96.8%
[5]
  residual activity: 85.7%
[6]
  residual activity: 95.6%
[7]
  residual activity: 106%
[8]
  residual activity: 92.7%
[9]
  residual activity: 104%
[10]
  residual activity: 96.4%
[11]
  residual activity: 97.9%
[12]
  residual activity: 90.8%
[13]
  residual activity: 97.5%
[14]
  residual activity: 95.4%
[15]
  residual activity: 13.3%
[16]
  residual activity: 92.9%
[17]
  residual activity: 90.2%
[18]
  residual activity: 90.6%
[19]
  residual activity: 86.3%
[20]
  residual activity: 69.1%
[21]
  residual activity: 81.3%
[22]
  residual activity: 28.6%
[23]
  residual activity: 92.8%
[24]
  residual activity: 108%
[25]
  residual activity: 61.6%
[26]
  residual activity: 106%
[27]
  residual activity: 90.8%
[28]
  residual activity: 99.8%
[29]
  residual activity: 101%
[30]
  residual activity: 87.4%
[31]
  residual activity: 88.7%
[32]
  residual activity: 62.3%
[33]
  residual activity: 81.4%
[34]
  residual activity: 83.9%
[35]
  residual activity: 75.1%
[36]
  residual activity: 89.6%
[37]
  residual activity: 88.1%
[38]
  residual activity: 82.2%
[39]
  residual activity: 81.4%
[40]
  residual activity: 99.7%
[41]
  residual activity: 105%
